Experimental data published in patent US7141533B2, “Hetaryl-substituted heterocycles” (Bayer CropScience AG, priority 2000, dated 2006).

Experiments:
[1] = tested on: larvae of the mustard beetle (Phaedon cochleariae); assay: Phaedon larvae test; format: in vivo; settings: cabbage leaves dipped
Description: (§1) [table] To produce a suitable preparation of active compound, 1 part by weight of active compound is mixed with the stated amounts of solvent and emulsifier, and the concentrate is diluted with emulsifier-containing water to the desired concentration. Cabbage leaves (Brassica oleracea) are treated by being dipped into the preparation of active compound of the desired concentration and are populated with the larvae of the mustard beetle (Phaedon cochleariae) while the leaves are still moist. After the desired period of time, the kill in % is determined. 100% means that all beetle larvae have been killed; 0% means that none of the beetle larvae have been killed.

[2] = tested on: peach aphid (Myzus persicae); assay: Myzus test; format: in vivo; settings: cabbage leaves dipped
Description: as §1, with “oleracea) which are heavily infested by the peach aphid (Myzus persicae)” for “oleracea)”, “concentration.” for “concentration and are populated with the larvae of the mustard beetle (Phaedon cochleariae) while the leaves are still moist.”, “aphids” for “beetle larvae”

[3] = tested on: greenhouse red spider mite (Tetranychus urticae); assay: Tetranychus test (OP-resistant/dip treatment); format: in vivo; settings: bean plants dipped, OP-resistant
Description: [table] To produce a suitable preparation of active compound, 1 part by weight of active compound is mixed with the stated amounts of solvent and emulsifier, and the concentrate is diluted with emulsifier-containing water to the desired concentration. Bean plants (Phaseolus vulgaris) which are heavily infested by all stages of the greenhouse red spider mite (Tetranychus urticae) are dipped into a preparation of active compound of the desired concentration. After the desired period of time, the effect in % is determined. 100% means that all spider mites have been killed. 0% means that none of the spider mites have been killed.

[4] = tested on: caterpillars of the army worm (Spodoptera frugiperda); assay: Spodoptera frugiperda test; format: in vivo; settings: cabbage leaves dipped
Description: as §1, with “caterpillars” for “the larvae”, “army worm (Spodoptera frugiperda)” for “mustard beetle (Phaedon cochleariae)”, “caterpillars” for “beetle larvae”

Alopecurus [5] = assay: Post-emergence test; format: in vivo; settings: after three weeks
Description: (§2) [table] To produce a suitable preparation of active compound, 1 part by weight of active compound is mixed with the stated amount of solvent, the stated amount of emulsifier is added and the concentrate is diluted with water to the desired concentration. Test plants of a height of 5 to 15 cm are sprayed with the preparation of active compound such that the particular amounts of active compound desired are applied per unit area. The concentration of the spray liquor is chosen such that the particular amounts of active compound desired are applied in 1000 1 of water/ha. After three weeks, the degree of damage to the plants is rated in % damage in comparison to the development of the untreated control. [table]

Echinochloa = assay: Post-emergence test; format: in vivo; settings: after three weeks
Description: as §2

Amaranthus = assay: Post-emergence test; format: in vivo; settings: 250 g ai/ha, after three weeks
Description: as §2

Avena fatua [6] = assay: Post-emergence test; format: in vivo; settings: after three weeks
Description: as §2

Setaria [7] = assay: Post-emergence test; format: in vivo; settings: 250 g ai/ha, after three weeks
Description: as §2

Digitaria = assay: Post-emergence test; format: in vivo; settings: after three weeks
Description: as §2

sugar beet [8] = assay: Post-emergence test; format: in vivo; settings: after three weeks
Description: as §2

Sinapis = assay: Post-emergence test; format: in vivo; settings: 250 g ai/ha, after three weeks
Description: as §2

rice = assay: Post-emergence test; format: in vivo; settings: 250 g ai/ha, after three weeks
Description: as §2

Stellaria = assay: Post-emergence test; format: in vivo; settings: 250 g ai/ha, after three weeks
Description: as §2

[9] = logP (HPLC; acetonitrile); format: physicochemical; settings: for logP (pH2): pH 2
Excerpt: Yield: 2.4 g ( ? 41.62% of theory), logP (acidic) 4.54 (HPLC; acetonitrile).

Abutilon = assay: Post-emergence test; format: in vivo; settings: 250 g ai/ha, after three weeks
Description: as §2

Meloidogyne incognita = assay: Meloidogyne test; format: in vivo; settings: Meloidogyne incognita egg/larvae on lettuce in sand
Description: [table] To produce a suitable preparation of active compound, 1 part by weight of active compound is mixed with the stated amounts of solvent and emulsifier, and the concentrate is diluted with water to the desired concentration. Containers are filled with sand, solution of active compound, Meloidogyne incognita egg/larvae suspension and lettuce seeds. The lettuce seeds germinate and the plants develop. On the roots, galls are formed. After the desired period of time, the nematicidal action in % is determined using the formation of galls as a measure. 100% means that no galls have been found; 0% means that the number of galls on the treated plants corresponds to that on the untreated control.

Bromus = assay: Pre-emergence test; format: in vivo; settings: 250 g ai/ha, after three weeks
Description: (§3) [table] To produce a suitable preparation of active compound, 1 part by weight of active compound is mixed with the stated amount of solvent, the stated amount of emulsifier is added and the concentrate is diluted with water to the desired concentration. Seeds of the test plants are sown in normal soil. After about 24 hours, the soil is sprayed with the preparation of active compound such that the particular amounts of active compound desired are applied per unit area. The concentration of the spray liquor is chosen such that the particular amounts of active compound desired are applied in 1000 1 of water/ha. After three weeks, the degree of damage to the plants is rated in % damage in comparison to the development of the untreated control. [table]

Avena fatua [10] = assay: Pre-emergence test; format: in vivo; settings: after three weeks
Description: as §3

Setaria [11] = assay: Pre-emergence test; format: in vivo; settings: after three weeks
Description: as §3

Lolium = assay: Pre-emergence test; format: in vivo; settings: after three weeks
Description: as §3

oilseed rape [12] = assay: Pre-emergence test; format: in vivo; settings: after three weeks
Description: as §3

sugar beet [13] = assay: Pre-emergence test; format: in vivo; settings: after three weeks
Description: as §3

Soya bean = assay: Post-emergence test; format: in vivo; settings: 250 g ai/ha, after three weeks
Description: as §2

Alopecurus [14] = assay: Pre-emergence test; format: in vivo; settings: 125 g ai/ha, after three weeks
Description: as §3

Matricaria = assay: Pre-emergence test; format: in vivo; settings: 125 g ai/ha, after three weeks
Description: as §3

Chenopodium = assay: Post-emergence test; format: in vivo; settings: 250 g ai/ha, after three weeks
Description: as §2

oilseed rape [15] = assay: Post-emergence test; format: in vivo; settings: 250 g ai/ha, after three weeks
Description: as §2

Compound	kill of beetle larvae [1]	kill of caterpillars [4]	% damage Alopecurus (Alopecurus [5]; 250 g ai/ha)	% damage Echinochloa (Echinochloa; 250 g ai/ha)	% damage Amaranthus (Amaranthus)	% damage Avena fatua (Avena fatua [6]; 250 g ai/ha)	% damage Setaria (Setaria [7])	further results
COC1CCC2(CC1)NC(=O)C(c1nc(-c3ccc(C)cc3)sc1C)=C2O (single isomer, unassigned) [Example I-1-A-a-8]	good activity							kill of aphids [2]: good activity
Cc1sc(-c2ccc(Cl)cc2)nc1C1=C(O)C2(CCOCC2)NC1=O [Example I-1-A-a-5]	good activity	good activity	80%	100%	90%			effect on spider mites [3]: good activity; kill of aphids [2]: good activity
CCOC(=O)OC1=C(c2nc(-c3ccc(Cl)cc3)sc2C)C(=O)NC12CCC(OC)CC2 (stereo not shown) [Example I-1-A-c-1]	good activity	good activity	80%	95%		95%	90%	
Cc1sc(-c2ccc(Cl)cc2)nc1C1=C(O)C2(CCCOC2)NC1=O (stereo not shown) [Example I-1-A-a-6]	good activity	good activity						effect on spider mites [3]: good activity; kill of aphids [2]: good activity; % damage Alopecurus (Alopecurus [5]; 125 g ai/ha): 90%; % damage Avena fatua (Avena fatua [6]; 125 g ai/ha): 90%; % damage Echinochloa (Echinochloa; 125 g ai/ha): 90%; % damage Digitaria (Digitaria; 125 g ai/ha): 95%; % damage sugar beet (sugar beet [8]; 125 g ai/ha): 0%
Cc1sc(-c2ccc(Cl)cc2)nc1C1=C(O)C2(CCC(C)CC2)NC1=O (stereo not shown) [Example I-1-A-a-1]	good activity	good activity	80%	95%	70%	80%		% damage Sinapis (Sinapis): 80%
Cc1sc(-c2ccc(Cl)cc2)nc1C1=C(O)C(C)(C)NC1=O [Example I-1-A-a-2]	good activity	good activity	70%	90%	90%		95%	
COC1CCC2(CC1)NC(=O)C(c1nc(-c3ccc(Cl)cc3)sc1C)=C2O (single isomer, unassigned) [Example I-1-A-a-3]	good activity			100%		100%		% damage rice (rice): 10%; % damage Stellaria (Stellaria): 90%; % damage Digitaria (Digitaria; 250 g ai/ha): 100%
CCOC(=O)C1(OC(=O)Cc2nc(-c3ccc(Cl)cc3)sc2C)CCC(OC)CC1 (stereo not shown) [III-A-1]								chromatographic logP ([9]; acidic, HPLC, acetonitrile): 4.54
COC1CCC2(CC1)NC(=O)C(c1nc(-c3ccc(Cl)cc3)sc1C)=C2OC(=O)C(C)C (stereo not shown) [Example I-1-A-b-1]			95%	100%	80%	100%	100%	% damage Abutilon (Abutilon): 80%
Cc1sc(-c2ccc(Cl)cc2)nc1C1=C(O)C(C)(C)OC1=O [Example I-2-A-a-2]	good activity			100%		90%	95%	nematicidal action (formation of galls) (Meloidogyne incognita): good activity; effect on spider mites [3]: good activity; % damage Bromus (Bromus): 90%; % damage Avena fatua (Avena fatua [10]; 250 g ai/ha): 90%; % damage Setaria (Setaria [11]; 250 g ai/ha): 100%; % damage Lolium (Lolium; 250 g ai/ha): 100%; % damage oilseed rape (oilseed rape [12]; 250 g ai/ha): 0%; % damage sugar beet (sugar beet [13]; 250 g ai/ha): 0%; % damage Soya bean (Soya bean): 0%; % damage Digitaria (Digitaria; 250 g ai/ha): 90%; % damage sugar beet (sugar beet [8]; 250 g ai/ha): 0%
CCOC(=O)C(C)(C)OC(=O)Cc1nc(-c2ccc(Cl)cc2)sc1C [III-A-2]								logP (pH2) [9]: 4.53
Cc1oc(-c2ccccc2)nc1C1=C(O)C(C)(C)OC1=O [Example I-2-B-a-2]								logP (pH2) [9]: 3.43
CCOC1CCC2(CC1)NC(=O)C(c1nc(-c3ccc(Cl)cc3)sc1C)=C2O (single isomer, unassigned) [Example I-1-A-a-4]	good activity	good activity	95%	100%	95%	100%	100%	effect on spider mites [3]: good activity; % damage Abutilon (Abutilon): 80%
COC1CCC2(CC1)OC(=O)C(c1nc(-c3ccc(Cl)cc3)sc1C)=C2O (stereo not shown) [Example I-2-A-a-1]	good activity	good activity	80%	100%	70%	95%	100%	nematicidal action (formation of galls) (Meloidogyne incognita): good activity; % damage Alopecurus (Alopecurus [14]): 90%; % damage Matricaria (Matricaria): 100%; % damage Avena fatua (Avena fatua [10]; 125 g ai/ha): 100%; % damage Setaria (Setaria [11]; 125 g ai/ha): 100%; % damage Lolium (Lolium; 125 g ai/ha): 100%; % damage oilseed rape (oilseed rape [12]; 125 g ai/ha): 0%; % damage sugar beet (sugar beet [13]; 125 g ai/ha): 0%; kill of aphids [2]: good activity; % damage Chenopodium (Chenopodium): 70%; % damage oilseed rape (oilseed rape [15]): 20%
